Test results taken from US6828309B2, “Use of pentosan polysulfate to treat certain conditions of the prostate” (The United States of America as represented by the …, priority 2000, dated 2004).

What was measured:
[1] = target: T1, type II 5-alpha-reductase (Homo sapiens, UniProt P31213); conditions: Moore et al. 1995; cited from earlier work
T1 sequence (P31213 1-254): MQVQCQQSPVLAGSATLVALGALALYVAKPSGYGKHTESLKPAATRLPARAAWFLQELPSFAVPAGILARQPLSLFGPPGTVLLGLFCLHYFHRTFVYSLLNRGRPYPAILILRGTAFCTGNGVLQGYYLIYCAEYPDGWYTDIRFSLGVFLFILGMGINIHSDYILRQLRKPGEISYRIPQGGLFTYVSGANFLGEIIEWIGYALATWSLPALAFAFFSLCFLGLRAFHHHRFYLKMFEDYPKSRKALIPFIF

human prostate cells = test: Dose response / growth curves of prostatic smooth muscle cells in 20% FBS, cell counts by Coulter counter; assay type: cell-based
Method: Fragments from the nodular areas of prostatectomy specimens were obtained, cut into small pieces, and incubated in a collagenase solution (3 mg/ml) (Sigma Chemical Co., St. Louis, Mo.) overnight at 37° C. The following day, the digested fragments were resuspended in complete Waymouth's medium (Gibco) containing 20% fetal bovine serum (FBS), L-glutamine, penicillin (100 U/ml), streptomycin (100 μg/ml), and sodium bicarbonate. The digested fragments were then plated into 24-well plates (Nunc Nalge International, Naperville, Ill.) coated with human fibronectin (Collaborative Research). The fragments were left undisturbed in 95% […] and 5% CO2 until the first outgrowth was apparent (by day 7), at which time the cells appeared elongated and stellate and formed parallel arrays. The medium was changed twice a week until the cells reached confluence, at which time the cells were transferred into flasks. All experiments were performed on cells between passage 2 and 10, at which time the cells appeared to have a stable phenotype (i.e., monolayer growth with no morphological change and no hillock formation at confluence). Characterization was performed by staining for a smooth muscle cell actin (Sigma Chemical Co.) and F actin (Molecular Probes) in accordance with manufacturers' directions. All of the cells contained end to end actin filaments when stained with phalloidin. Such staining is characteristic of mesenchymal cells. Since the majority of the cells contained smooth muscle actin (see FIG. 1), the cells were considered to be smooth muscle cells
Dose response curves for the cells were generated by plating cells at 5,000 cells/well in 24-well plates (Nunc) in medium containing 20% FBS. After 36 hours, the medium was replaced with fresh 20% FBS containing medium and increasing concentrations of PPS (Elmiron®, Ivax Corp., Miami Fla.) were added. Cells were counted on days 1, 3 and 4 with a Coulter 7.1 cell counter (Coulter, Hialeah, Fla.). The addition of FBS stimulated cell proliferation. […] Cell number decreased 24 hours following treatment with PPS (10 or 100 μg/ml) (see FIG. 2). […]

MMP-2 = test: Zymography for metalloproteinases in medium of PPS-treated cells (MMP-2); assay type: cell-based, human; conditions: PPS 100 μg/μl daily for 5 days; densitometry
Method: (§1) Cells in medium containing 20% FBS were pipetted into 6-well plates and were left undisturbed for 24 hours. On day 0, fresh medium containing 20% serum, with and without PPS ([…]), was added PPS was added daily for 5 days. At day 4, the serum in the medium was reduced to 0.1% FBS so as to avoid interference with the assays. At the time of collection, the cellular supernatants were centrifuged to remove cellular debris. Cell layers from the same wells were used to determine cell number.
(§2) Briefly, medium was diluted with 0.1% FBS and 5× Laemmli buffer so that all samples corresponded to an identical cell number. Gelatinases (MMP-9 and MMP-2) in the medium were assayed using 10% zymogram gels (Novex, San Diego, Calif.). Following electrophoresis, the gels were washed for 1 hour in 2.5% SDS and incubated overnight in collagenase as described previously (Boyle et al., Urology 48: 398-405, 1996). The gels were stained with Coomassie Blue and air-dried. To check for non-specific bands, gels were incubated in 50 mM Tris buffer, with the addition of 25 mM EDTA. Quantitative densitometry was performed using NIH image 1.6. […] However MMP-9 increased 235.7+/−50.31 as compared to control cells (see FIG. 3) (p<001).

MMP-9 = test: Zymography for metalloproteinases in medium of PPS-treated cells (MMP-9); assay type: cell-based, human; conditions: PPS 100 μg/μl daily for 5 days; densitometry
Method: as §1, §2

TIMP-1 = test: Reverse zymography for tissue inhibitors of metalloproteinases (TIMP-1); assay type: cell-based, human; conditions: PPS-treated cells; densitometry
Method: (§3) Tissue inhibitors of metalloproteinases (TIMPS) in the supernatant and the cell layer were assessed by reverse zymography. Briefly, gels were prepared containing gelatinase A. Medium was diluted to normalize for cell number as described in Example 2. Gels were washed for 1 hour in 2.5% SDS following electrophoresis and incubated overnight at 37° C. Coomasie Blue staining and air drying was performed as described in Example 2. Densitometry was performed using NIH image 1.6 to quantitate the TIMPS activity.

TIMP-2 = test: Reverse zymography for tissue inhibitors of metalloproteinases (TIMP-2); assay type: cell-based, human; conditions: PPS-treated cells; barely detectable in the control medium
Method: as §3

type IV collagen = test: Collagen analysis, type IV collagen immunoassay; assay type: cell-based, human; conditions: PPS-treated vs untreated cells
Method: (§4) Another set of cells was plated as described in Example 2 and either treated with PPS or left untreated. The supernatant was centrifuged to remove cellular debris and transferred to a tube containing protease inhibitors (PMSF, NEM, EDTA) and frozen prior to assay.
Type IV collagen: The Assay was performed in a similar way, except the medium and standards were coated on the plate for 8 hours prior to blocking. The concentration of the antibody and the biotinylated goat anti-rabbit IgG was 1:2000. The SAAP was used at 1:1500.
(§5) Type I and type IV (Biodesign) collagen standards were diluted to a final concentration of 0.25-4 ng/well in 0.02 N acetic acid. The curves were linear (r=0.98).

type I collagen = test: Collagen analysis, type I collagen immunoassay; assay type: cell-based, human; conditions: PPS-treated vs untreated cells
Method: as §4
Type I collagen: 100 μl of medium or human collagen type I standard were incubated for 24 hours in a 96 well plate (Nunc). After 3 washes with 0.05% Tween/PBS, the wells were blocked with 1% BSA/PBS for an additional 24 hours. Following 4 washes with 0.05% Tween/PBS, 50 μl of human collagen type I antibody (1:1000) (Biodesiga, Kennebunk, Me.) was applied for 90 minutes. The plate was washed again and biotin-labeled goat anti-rabbit IgG (1:1000, Sigma) was applied for 1 hour. The wells were washed 4 more times and incubated with streptavidin […] (SAAP) at a 1:2500 concentration. P-nitrophenyl phosphate (pNPP, Sigma) was used for color development according to the manufacturer's directions. The plate was read in a Titertek Mulitskan plate reader at 405 nm.
as §5

[2] = patients treated for IC; Sand et al. 1997; cited from earlier work

| Compound | Decrease in DHT [1] [%] | Prostate specific antigen [1] | Prostate volume reductions [1] [%] | Cell number (human prostate cells; 24 hours following treatment with PPS (10 or 100 μg/ml), 20% FBS) | Cell death, as assessed by trypan blue staining (human prostate cells; PPS 10 or 100 μg/ml) | Decrease in cell number (human prostate cells; day 4 of treatment with 100 μg/ml PPS) [fold] | MMP-2 levels, PPS-treated cells vs control cells (MMP-2) | MMP-9 increase as compared to control cells (MMP-9) | TIMP-1 levels increase as compared to control cells (TIMP-1) | TIMP-2 expression in the medium (TIMP-2) | Type IV collagen level (type IV collagen; cell layer) | Type IV collagen level (type IV collagen; medium) | Type I collagen level relative to untreated control (type I collagen; cell layer) | Type I collagen level relative to untreated control (type I collagen; medium) | Serious adverse effects (mainly gastrointestinal or alopecia) [2] |
| --- | --- | --- | --- | --- | --- | --- | --- | --- | --- | --- | --- | --- | --- | --- | --- |
| CC(C)(C)NC(=O)[C@H]1CC[C@H]2[C@@H]3CC[C@H]4NC(=O)C=C[C@]4(C)[C@H]3CC[C@]12C [finasteride] | 72 | reduction | 30 | – | – | – | – | – | – | – | – | – | – | – | – |
| pentosan polysulfate [PPS] | – | – | – | decreased | not associated with cell death | 3 | no significant differences | 235.7+/−50.31% of untreated control c | 203.5+/−50.31% of untreated control c | expressed at high levels | 52.99%+/−7.556 % of controls | 43.03%+/−4.029 % of controls | 66.91%+/−25.42 % of controls | 29.97%+/−3.692 % of controls | 3.2 % of chronic users |
